Where two headings read alike, the source gives them in different places.
Biological target: T1, VAV1 (Homo sapiens, UniProt P15498+Q96SW2)
T1 construct: A heterozygous VAV1 C-terminal HiBiT knock-in pool was generated at Monte Rosa Therapeutics from a clonal Jurkat cell; endogenous in cells; host or cells: Jurkat clone stably expressing LgBiT, homozygous GSPT1-G575N; heterozygous VAV1-HiBiT knock-in pool
Assay: VAV1 degradation activity, VAV1-HiBiT knock-in Jurkat luminescence assay (Example A, Table 1)
Type: cell-based
Details: VAV1-HiBiT knock-in Jurkat cells; for Dmax: Jurkat
Experimental: Cells were plated at 10,000 cells per well using Multiflo (BioTek) or Multi Drop Combi (Thermo Fisher) in 384-well white solid bottom plates (Corning, 3570BC) in 25 ul volume in RPMI 1640 media (Thermo Fischer, 22400105) containing 10% FBS (Corning, 35-075-CV), 1% Penicillin/Streptomycin (ThermoFisher Scientific, 15140-122), and 1% Endurazine (Nano-Glo Endurazine Live Cell Substrate (Promega, N2571)). Cells were incubated for ˜16 hours at 37° C., 5% CO2. 25 nL of a compound at 10 μM were dosed into the plate using an Echo® 650 liquid handler (Labcyte). Cells were incubated at 37° C., 5% CO2 and signal was read at 6 and 24 hours after compound addition on a Pherastar FSX using “LUM plus” optic module.
Analysis was performed in Scinamic (Scinamic, Cambridge, MA). Luminescence response (R) was calculated by the formula: response=100*(S−N)/(P−N) where S is the signal of the well, N and P the mean negative and positive control values respectively of the same plate. The luminescence response was then fitted in Scinamic using a 3-parameter agonist logistic fit (hillslope=1, EC50>0, top/bottom unconstrained).

[1] = luminescence read at 6 and 24 hours, read-out: VAV1 Dmax %
[2] = luminescence read at 6 and 24 hours, read-out: VAV1 Dmax %, class
[3] = luminescence read at 6 and 24 hours, read-out: VAV1 DC50
[4] = luminescence read at 6 and 24 hours, read-out: VAV1 DC50 (nM), class
[5] = luminescence read at 6 and 24 hours after compound addition, read-out: VAV1 Dmax %
[6] = luminescence read at 6 and 24 hours after compound addition, read-out: VAV1 Dmax %, class
[7] = luminescence read at 6 and 24 hours after compound addition, read-out: VAV1 DC50
[8] = luminescence read at 6 and 24 hours after compound addition, read-out: VAV1 DC50 (nM), class

SMILES	Dmax [1]	Dmax [2]	DC50 [3]	DC50 [4]	Dmax [5]	Dmax [6]	DC50 [7]	DC50 [8]
CC(C)(c1ccc(-c2cccc(C3CCC(=O)NC3=O)c2Cl)cc1)n1ccccc1=O (centres unmarked) [Compound 231, 3-(2-chloro-4′-(2-(2-oxopyridin-1(2H)-yl)propan-2-yl)-[1,1′-biphenyl]-3-yl)piperidine-2,6-dione]	90.1%	> 90%	18.4 nM	≤ 100 nM				
Cn1ccc(CN2C(=O)COc3cc(-c4cccc(C5CCC(=O)NC5=O)c4Cl)ccc32)n1 (centres unmarked) [Compound 502, 3-(2-chloro-3-(4-((1-methyl-1H-pyrazol-3-yl)methyl)-3-oxo-3,4-dihydro-2H-benzo[b][1,4]oxazin-7-yl)phenyl)piperidine-2,6-dione]					97.8%	> 90%	3.95 nM	≤ 100 nM
O=C1CCC(c2cccc(-c3ccc(CN4C(=O)CCn5nccc54)cc3)c2Cl)C(=O)N1 (centres unmarked) [Compound 253]	87.7%	60 to 90%	29.6 nM	≤ 100 nM				
CN1CCCN(Cc2ncc(-c3cccc(C4CCC(=O)NC4=O)c3Cl)cc2F)C1=O (centres unmarked) [Compound 383, 3-(2-chloro-3-(5-fluoro-6-((3-methyl-2-oxotetrahydropyrimidin-1(2H)-yl)methyl)pyridin-3-yl)phenyl)piperidine-2,6-dione]	80.2%	60 to 90%	113 nM	100 to 1000 nM				
Cc1c(-c2ccc(Cn3ccccc3=O)cc2)cccc1C1CCC(=O)NC1=O (centres unmarked) [Compound 243, 3-[2-methyl-3-[4-[(2-oxo-1-pyridyl)methyl]phenyl]phenyl]piperidine-2,6-dione]	56.8%	< 60%	4220 nM	> 1000 nM				
C[C@H]1COCC(=O)N1Cc1ccc(-c2cccc(C3CCC(=O)NC3=O)c2Cl)cc1 (some centres unmarked) [Compound 265]	88%	60 to 90%	32.5 nM	≤ 100 nM				
COc1ccc(-c2ccc(F)c(C3CCC(=O)NC3=O)c2F)cc1C (centres unmarked) [Compound 148]	21.4%	< 60%	≥ 10000 nM	> 1000 nM				
O=C1CCC(c2cccc(-c3ccc(Cc4cccs4)cc3)c2Cl)C(=O)N1 (centres unmarked) [Compound 377, 3-(2-chloro-4′-(thiophen-2-ylmethyl)-[1,1′-biphenyl]-3-yl)piperidine-2,6-dione]	98.8%	> 90%	17.2 nM	≤ 100 nM				
COc1ccc(-c2cccc(C3CCC(=O)NC3=O)c2Cl)cc1C#N (centres unmarked) [Compound 139]	25.2%	< 60%	≥ 10000 nM	> 1000 nM				
CC1CCN(c2ccc(-c3cccc(C4CCC(=O)NC4=O)c3Cl)cc2)C(=O)C1 (centres unmarked) [Compound 332]	95.5%	> 90%	10.6 nM	≤ 100 nM				
COc1cc(-c2cccc(C3CCC(=O)NC3=O)c2Cl)ccc1C(F)F (centres unmarked) [Compound 125]	75.9%	60 to 90%	1530 nM	> 1000 nM				
CN1CCN(Cc2ccc(-c3cccc(C4CCC(=O)NC4=O)c3Cl)cc2)C1=O (centres unmarked) [Compound 388, 3-(2-chloro-4′-((3-methyl-2-oxoimidazolidin-1-yl)methyl)-[1,1′-biphenyl]-3-yl)piperidine-2,6-dione]	91%	> 90%	16.2 nM	≤ 100 nM				
CN1CCN(c2ccc(-c3cccc(C4CCC(=O)NC4=O)c3Cl)cc2)C1=O (centres unmarked) [Compound 387, 3-(2-chloro-4′-(3-methyl-2-oxoimidazolidin-1-yl)-[1,1′-biphenyl]-3-yl)piperidine-2,6-dione]	58.4%	< 60%	865 nM	100 to 1000 nM				
O=C1CCC(c2cccc(-c3ccc(Cc4ccon4)cc3)c2Cl)C(=O)N1 (centres unmarked) [Compound 455, 3-(2-chloro-4′-(isoxazol-3-ylmethyl)-[1,1′-biphenyl]-3-yl)piperidine-2,6-dione]	95.5%	> 90%	15.2 nM	≤ 100 nM				
O=C1CCC(c2cccc(-c3ccc(-n4cccnc4=O)cc3)c2Cl)C(=O)N1 (centres unmarked) [Compound 471, 3-(2-chloro-4′-(2-oxopyrimidin-1(2H)-yl)-[1,1′-biphenyl]-3-yl)piperidine-2,6-dione]	92.8%	> 90%	24.1 nM	≤ 100 nM				
CN1CCCN(Cc2ccc(-c3cccc(C4CCC(=O)NC4=O)c3Cl)cc2F)C1=O (centres unmarked) [Compound 425, 3-(2-chloro-3′-fluoro-4′-((3-methyl-2-oxotetrahydropyrimidin-1(2H)-yl)methyl)-[1,1′-biphenyl]-3-yl)piperidine-2,6-dione]	96.5%	> 90%	10.7 nM	≤ 100 nM				
CC1(C)CCCC(=O)N1c1ccc(-c2cccc(C3CCC(=O)NC3=O)c2Cl)cc1 (centres unmarked) [Compound 403, 3-(2-chloro-4′-(2,2-dimethyl-6-oxopiperidin-1-yl)-[1,1′-biphenyl]-3-yl)piperidine-2,6-dione]	98.2%	> 90%	3.26 nM	≤ 100 nM				
Cn1cncc1Cn1ncc2cc(-c3cccc(C4CCC(=O)NC4=O)c3Cl)ccc21 (centres unmarked) [Compound 508, 3-(2-chloro-3-(1-((1-methyl-1H-imidazol-5-yl)methyl)-1H-indazol-5-yl)phenyl)piperidine-2,6-dione]					92%	> 90%	63.2 nM	≤ 100 nM
O=C1CCC(c2cccc(-c3ccc(-n4cccnc4=O)c(F)c3)c2Cl)C(=O)N1 (centres unmarked) [Compound 419, 3-(2-chloro-3′-fluoro-4′-(2-oxopyrimidin-1(2H)-yl)-[1,1′-biphenyl]-3-yl)piperidine-2,6-dione]	90.7%	> 90%	43.1 nM	≤ 100 nM				
O=C1CCC(c2cccc(-c3ccc(N4C(=O)CC5CC54)cc3)c2Cl)C(=O)N1 (centres unmarked) [Compound 478, 3-(2-chloro-4′-(3-oxo-2-azabicyclo[3.1.0]hexan-2-yl)-[1,1′-biphenyl]-3-yl)piperidine-2,6-dione]	70.5%	60 to 90%	291 nM	100 to 1000 nM				
CC1CCCC(=O)N1c1ccc(-c2cccc(C3CCC(=O)NC3=O)c2Cl)cc1 (centres unmarked) [Compound 200, 3-(2-chloro-4′-(2-methyl-6-oxopiperidin-1-yl)-[1,1′-biphenyl]-3-yl)piperidine-2,6-dione]	97%	> 90%	5.14 nM	≤ 100 nM				
O=C1CCC(c2cccc(-c3ccc(CN4C(=O)CCC45CC5)cc3)c2Cl)C(=O)N1 (centres unmarked) [Compound 296]	93.8%	> 90%	10.1 nM	≤ 100 nM				
CC1CCC(F)(F)C(=O)N1Cc1ccc(-c2cccc(C3CCC(=O)NC3=O)c2Cl)cc1 (centres unmarked) [Compound 266]	93.2%	> 90%	14.1 nM	≤ 100 nM				
O=C1CCC(c2cccc(-c3ccc(N4CCOCC4)cc3)c2Cl)C(=O)N1 (centres unmarked) [Compound 338, 3-(2-chloro-4′-morpholino-[1,1′-biphenyl]-3-yl)piperidine-2,6-dione]	57.8%	< 60%	2170 nM	> 1000 nM				
C#Cc1ccc(C2CCC(=O)NC2=O)c(Cl)c1-c1ccc(OCc2ccn(C)n2)cc1 (centres unmarked) [Compound 172, 3-(2-chloro-6-ethynyl-4′-((1-methyl-1H-pyrazol-3-yl)methoxy)-[1,1′-biphenyl]-3-yl)piperidine-2,6-dione]	24.7%	< 60%	≥ 10000 nM	> 1000 nM				
O=C1CCC(c2cccc(-c3ccc(N4C(=O)CCC45CCC5)cc3)c2Cl)C(=O)N1 (centres unmarked) [Compound 457, 3-(2-chloro-4′-(6-oxo-5-azaspiro[3.4]octan-5-yl)-[1,1′-biphenyl]-3-yl)piperidine-2,6-dione]	98.2%	> 90%	2.78 nM	≤ 100 nM				
O=C1CCC(c2cccc(-c3ccc(CN4CCn5cncc5C4=O)cc3)c2Cl)C(=O)N1 (centres unmarked) [Compound 273]	78%	60 to 90%	118 nM	100 to 1000 nM				
O=C1CCC(c2cccc(-c3ccc(N4CCCCC4=O)c(F)c3)c2Cl)C(=O)N1 (centres unmarked) [Compound 461, 3-(2-chloro-3′-fluoro-4′-(2-oxopiperidin-1-yl)-[1,1′-biphenyl]-3-yl)piperidine-2,6-dione]	96.2%	> 90%	10.1 nM	≤ 100 nM				
CC1Oc2ccncc2N(Cc2ccc(-c3cccc(C4CCC(=O)NC4=O)c3Cl)cc2)C1=O (centres unmarked) [Compound 254]	96.2%	> 90%	11.2 nM	≤ 100 nM				
